# Experimental data published in patent publication US5703097A, “5-pyrrolyl-2-pyridylmethylsulfinyl benzimidazole derivatives” (priority 1994, dated 1997).
# pIC50: −log10 of the molar value. Where a name gives a salt, the structure may show the parent alone.
# Legend:
# H^+ /K^+ -ATPase = molecular target: T1, H^+ /K^+ -ATPase (Oryctolagus cuniculus, UniProt P27112); experiment: Inhibition of enzyme activity: in vitro inhibition of H+/K+-ATPase (TEST 1); type: biochemical, rabbit; details: 5 min pre-incubation at 37° C., 4 mM ATP
# T1 construct: The gastric mucous membrane was removed from a rabbit; from tissue; host or cells: rabbit gastric mucosa, microsomal fraction (77,000 g)
# Procedure: In this test, omeprazole [5-methoxy-2-[[(4-methoxy-3,5-dimethyl-2-pyridinyl)methyl]sulfinyl]-1H-benzimidazole] was used as the control compound.
# The gastric mucous membrane was removed from a rabbit and then centrifuged with 77,000 g using a ultra-centrifuge to separate the microsomal fraction which was used as the source of H^+ /K^+ -ATPase enzyme for this test. 60 μg of H^+ /K^+ -ATPase was pre-incubated with the sample (the compound according to the present invention) for 5 minutes at 37° C. and then 4 mM ATP as the substrate and 4 mM Mg^++, 20 mM K^+ as the cofactor were added thereto. Then, the amount of inorganic phosphorus thus produced was determined using a spectrophotometer at 660 nm and converted into the amount of protein. […]
# gastric juice secretion = experiment: Effect on inhibition of gastric juice secretion, in vivo, Shay method (TEST 2); parameters: species or system rat (SD male rats); details: for Volume of gastric juice / Inhibition rate, gastric juice secretion: into duodenum, 5 hours; for Volume of gastric juice: pylorus-ligated rats; for Inhibition rate, gastric juice secretion: vs normal group
# Procedure: (§1) The specific test methods are as follows.
# (§2) SD male rats (200±20 g) were fasted for 24 hours, except for water, and then anesthesized with ether. The abdomen of rats was incised and then the pylorus was ligated. The test compounds were suspended or dissolved in 5% CMC (carboxymethylcellulose) and injected into duodenum. After the abdomen was sutured, the rats were allowed to stand for 5 hours and then sacrificed with ether. The stomach was removed from rats and the gastric juices were collected. The gastric juice was centrifuged with 10,000 xg for 10 minutes at 4° C. to remove the precipitate. The amount of gastric juice and acidity were determined using pH 7.0 end point assay with 0.02N NaOH and then the total acid output was calculated.
# gastric acidity = experiment: Effect on inhibition of acidity (total acid output), in vivo, Shay method (TEST 2); parameters: species or system rat (SD male rats); details: for Volume (acidity, total acid output) / Inhibition rate, acidity: into duodenum, 5 hours; for Volume (acidity, total acid output): pylorus-ligated rats; for Inhibition rate, acidity: vs normal group
# Procedure: as §1, §2
# [1] = in words, even at a lower dose than that of the known anti-ulcer agent
# T1 sequence (P27112 2-1035 limits assumed): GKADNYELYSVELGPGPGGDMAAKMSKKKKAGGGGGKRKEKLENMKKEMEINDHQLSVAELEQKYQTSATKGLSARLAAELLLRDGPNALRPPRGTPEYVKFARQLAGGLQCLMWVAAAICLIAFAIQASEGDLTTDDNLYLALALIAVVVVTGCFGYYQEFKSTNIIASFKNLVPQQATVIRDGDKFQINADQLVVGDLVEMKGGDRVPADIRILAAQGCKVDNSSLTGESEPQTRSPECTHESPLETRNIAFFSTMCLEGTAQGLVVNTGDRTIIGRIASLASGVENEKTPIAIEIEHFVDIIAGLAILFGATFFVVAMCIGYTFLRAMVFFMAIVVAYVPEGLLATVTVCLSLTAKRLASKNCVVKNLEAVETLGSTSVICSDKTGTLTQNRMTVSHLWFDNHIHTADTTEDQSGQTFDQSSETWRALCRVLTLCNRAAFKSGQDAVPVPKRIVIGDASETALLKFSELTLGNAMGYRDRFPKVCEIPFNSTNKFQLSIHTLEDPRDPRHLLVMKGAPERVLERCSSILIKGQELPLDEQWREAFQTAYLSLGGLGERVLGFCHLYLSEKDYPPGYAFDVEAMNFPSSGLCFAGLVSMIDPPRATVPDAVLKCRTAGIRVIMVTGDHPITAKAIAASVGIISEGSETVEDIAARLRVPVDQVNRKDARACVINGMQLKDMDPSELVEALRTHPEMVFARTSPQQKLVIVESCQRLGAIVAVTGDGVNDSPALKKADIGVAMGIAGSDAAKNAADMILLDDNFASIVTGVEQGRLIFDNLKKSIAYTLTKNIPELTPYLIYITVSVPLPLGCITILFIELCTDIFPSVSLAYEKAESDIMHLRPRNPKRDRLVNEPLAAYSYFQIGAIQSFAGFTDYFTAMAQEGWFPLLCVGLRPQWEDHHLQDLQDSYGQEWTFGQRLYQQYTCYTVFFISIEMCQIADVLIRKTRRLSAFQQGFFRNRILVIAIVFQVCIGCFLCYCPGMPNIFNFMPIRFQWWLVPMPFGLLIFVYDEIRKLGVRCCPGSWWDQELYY
# T1 sequence (P18597 whole entry partner): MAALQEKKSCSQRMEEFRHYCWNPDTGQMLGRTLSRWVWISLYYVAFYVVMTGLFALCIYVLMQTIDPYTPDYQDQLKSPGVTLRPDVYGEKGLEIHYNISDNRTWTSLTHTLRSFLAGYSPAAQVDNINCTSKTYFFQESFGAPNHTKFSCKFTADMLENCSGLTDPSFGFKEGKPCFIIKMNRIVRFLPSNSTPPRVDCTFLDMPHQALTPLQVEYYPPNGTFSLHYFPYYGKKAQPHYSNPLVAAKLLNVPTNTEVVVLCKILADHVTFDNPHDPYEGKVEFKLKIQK
smiles,measurement,setting,value
"COc1ccnc(CSc2nc3cc(-n4cccc4)ccc3[nH]2)c1C [Compound 1, 2-[[(4-methoxy-3-methyl)-2-pyridinyl]methylthio]-5-(1H-pyrrol-1-yl)-1H-benzimidazole]",pIC50,H^+ /K^+ -ATPase,< 3.40
COc1ccnc(CS(=O)(=O)c2nc3cc(-n4cccc4)ccc3[nH]2)c1C [Compound 3],pIC50,H^+ /K^+ -ATPase,< 3.40
COc1c(C)cnc(C[S+]([O-])c2nc3cc(-n4cccc4)ccc3[nH]2)c1C (stereo not shown) [Compound 4],pIC50,H^+ /K^+ -ATPase,3.68
COc1cc(C[S+]([O-])c2nc3cc(-n4cccc4)ccc3[nH]2)ncc1C (stereo not shown) [Compound 5],pIC50,H^+ /K^+ -ATPase,4.49
same,Volume of gastric juice,gastric juice secretion; 10 mg/kg,1.31 ± 0.23 ml/100 g BW
same,"Inhibition rate, gastric juice secretion",gastric juice secretion; 10 mg/kg,52.81%
same,Volume of gastric juice,gastric juice secretion; 30 mg/kg,0.99 ± 0.16 ml/100 g BW
same,"Inhibition rate, gastric juice secretion",gastric juice secretion; 30 mg/kg,64.30%
same,effect for inhibition of gastric acid secretion,gastric juice secretion; in words,good effects
same,inhibition of gastric juice secretion,gastric juice secretion; [1],strong inhibition of gastric juice secretion
same,"Volume (acidity, total acid output)",gastric acidity; 10 mg/kg,16.89 ± 4.06 μ Eq/hr
same,"Inhibition rate, acidity",gastric acidity; 10 mg/kg,70.60%
same,"Volume (acidity, total acid output)",gastric acidity; 30 mg/kg,5.59 ± 2.22 μ Eq/hr
same,"Inhibition rate, acidity",gastric acidity; 30 mg/kg,90.27%
same,effect for lowering acidity,gastric acidity; in words,good effects
same,acidity lowering effect,gastric acidity; [1],high acidity lowering effect
Cc1cnc(C[S+]([O-])c2nc3cc(-n4cccc4)ccc3[nH]2)cc1C (stereo not shown) [Compound 6],pIC50,H^+ /K^+ -ATPase,~3.40
Cc1ccnc(C[S+]([O-])c2nc3cc(-n4cccc4)ccc3[nH]2)c1 (stereo not shown) [Compound 7],pIC50,H^+ /K^+ -ATPase,< 3.40
COc1ccnc(C[S+]([O-])c2nc3cc(-n4cccc4)ccc3[nH]2)c1 (stereo not shown) [Compound 8],pIC50,H^+ /K^+ -ATPase,4.04
same,Volume of gastric juice,gastric juice secretion; 10 mg/kg,1.42 ± 0.24 ml/100 g BW
same,"Inhibition rate, gastric juice secretion",gastric juice secretion; 10 mg/kg,28.85%
same,Volume of gastric juice,gastric juice secretion; 30 mg/kg,0.87 ± 0.15 ml/100 g BW
same,"Inhibition rate, gastric juice secretion",gastric juice secretion; 30 mg/kg,56.09%
same,effect for inhibition of gastric acid secretion,gastric juice secretion; in words,good effects
same,"Volume (acidity, total acid output)",gastric acidity; 10 mg/kg,14.29 ± 2.81 μ Eq/hr
same,"Inhibition rate, acidity",gastric acidity; 10 mg/kg,60.81%
same,"Volume (acidity, total acid output)",gastric acidity; 30 mg/kg,2.92 ± 1.42 μ Eq/hr
same,"Inhibition rate, acidity",gastric acidity; 30 mg/kg,91.99%
same,effect for lowering acidity,gastric acidity; in words,good effects
CCOc1ccnc(C[S+]([O-])c2nc3cc(-n4cccc4)ccc3[nH]2)c1C (stereo not shown) [Compound 9],pIC50,H^+ /K^+ -ATPase,4.19
same,Volume of gastric juice,gastric juice secretion; 10 mg/kg,1.50 ± 0.15 ml/100 g BW
same,"Inhibition rate, gastric juice secretion",gastric juice secretion; 10 mg/kg,36.04%
same,Volume of gastric juice,gastric juice secretion; 30 mg/kg,1.14 ± 0.12 ml/100 g BW
same,"Inhibition rate, gastric juice secretion",gastric juice secretion; 30 mg/kg,51.46%
same,effect for inhibition of gastric acid secretion,gastric juice secretion; in words,good effects
same,"Volume (acidity, total acid output)",gastric acidity; 10 mg/kg,11.84 ± 3.10 μ Eq/hr
same,"Inhibition rate, acidity",gastric acidity; 10 mg/kg,56.66%
same,"Volume (acidity, total acid output)",gastric acidity; 30 mg/kg,3.80 ± 1.54 μ Eq/hr
same,"Inhibition rate, acidity",gastric acidity; 30 mg/kg,86.09%
same,effect for lowering acidity,gastric acidity; in words,good effects
CCc1cnc(C[S+]([O-])c2nc3cc(-n4cccc4)ccc3[nH]2)cc1OC (stereo not shown) [Compound 10],pIC50,H^+ /K^+ -ATPase,5.06
[O-][S+](Cc1ccccn1)c1nc2cc(-n3cccc3)ccc2[nH]1 (stereo not shown) [Compound 11],pIC50,H^+ /K^+ -ATPase,< 3.40
Cc1cnc(C[S+]([O-])c2nc3cc(-n4cccc4)ccc3[nH]2)c(C)c1 (stereo not shown) [Compound 12],pIC50,H^+ /K^+ -ATPase,4.07
"Cc1c(OCC(F)(F)F)ccnc1C[S+]([O-])c1nc2cc(-n3cccc3)ccc2[nH]1 (stereo not shown) [Compound 13, 2-[[(4-(2,2,2-trifluoroethoxy)-3-methyl)-2-pyridinyl]methylsulfinyl]-5-(1H-pyrrol-1-yl)-1H-benzimidazole]",pIC50,H^+ /K^+ -ATPase,4.00
"Cc1c(OCC(F)(F)C(F)(F)F)ccnc1C[S+]([O-])c1nc2cc(-n3cccc3)ccc2[nH]1 (stereo not shown) [Compound 14, 2-[[(4-(2,2,3,3,3-pentafluoropropoxy)-3-methyl)-2-pyridinyl]methylsulfinyl]-5-(1H-pyrrol-1-yl)-1H-benzimidazole]",pIC50,H^+ /K^+ -ATPase,< 3.40
"COc1ccnc(C[S+]([O-])c2nc3cc(-n4c(C)ccc4C)ccc3[nH]2)c1C (stereo not shown) [Compound 15, 2-[[(4-methoxy-3-methyl)-2-pyridinyl]methylsulfinyl]-5-(1H-2,5-dimethylpyrrol-1-yl)-1H-benzimidazole]",pIC50,H^+ /K^+ -ATPase,4.48
"COc1ccnc(C[S+]([O-])c2nc3cc(-n4cccc4)ccc3[nH]2)c1C (stereo not shown) [Compound 16, 2-[[(4-methoxy-3-methyl)-2-pyridinyl]methylsulfinyl]-5-(1H-pyrrol-1-yl)-1H-benzimidazole sodium salt]",pIC50,H^+ /K^+ -ATPase,4.55
same,Volume of gastric juice,"gastric juice secretion; 3 mg/kg, sodium salt",2.05 ± 0.16 ml/100 g BW
same,"Inhibition rate, gastric juice secretion","gastric juice secretion; 3 mg/kg, sodium salt",41.29%
same,Volume of gastric juice,"gastric juice secretion; 10 mg/kg, sodium salt",1.35 ± 0.12 ml/100 g BW
same,"Inhibition rate, gastric juice secretion","gastric juice secretion; 10 mg/kg, sodium salt",61.51%
same,Volume of gastric juice,"gastric juice secretion; 30 mg/kg, sodium salt",1.17 ± 0.20 ml/100 g BW
same,"Inhibition rate, gastric juice secretion","gastric juice secretion; 30 mg/kg, sodium salt",66.61%
same,effect for inhibition of gastric acid secretion,gastric juice secretion; in words,good effects
same,"Volume (acidity, total acid output)","gastric acidity; 3 mg/kg, sodium salt",22.59 ± 2.88 μ Eq/hr
same,"Inhibition rate, acidity","gastric acidity; 3 mg/kg, sodium salt",70.05%
same,"Volume (acidity, total acid output)","gastric acidity; 10 mg/kg, sodium salt",10.99 ± 3.05 μ Eq/hr
same,"Inhibition rate, acidity","gastric acidity; 10 mg/kg, sodium salt",85.43%
same,"Volume (acidity, total acid output)","gastric acidity; 30 mg/kg, sodium salt",1.98 ± 1.21 μ Eq/hr
same,"Inhibition rate, acidity","gastric acidity; 30 mg/kg, sodium salt",97.37%
same,effect for lowering acidity,gastric acidity; in words,good effects
COc1ccnc(C[S+]([O-])c2nc3cc(-n4cccc4)ccc3[nH]2)c1C (stereo not shown) [Compound 17],pIC50,H^+ /K^+ -ATPase,4.89
same,Volume of gastric juice,gastric juice secretion; 3 mg/kg,1.31 ± 0.18 ml/100 g BW
same,"Inhibition rate, gastric juice secretion",gastric juice secretion; 3 mg/kg,54.79%
same,Volume of gastric juice,gastric juice secretion; 10 mg/kg,1.23 ± 0.20 ml/100 g BW
same,"Inhibition rate, gastric juice secretion",gastric juice secretion; 10 mg/kg,57.55%
same,Volume of gastric juice,gastric juice secretion; 30 mg/kg,1.15 ± 0.15 ml/100 g BW
same,"Inhibition rate, gastric juice secretion",gastric juice secretion; 30 mg/kg,60.38%
same,effect for inhibition of gastric acid secretion,gastric juice secretion; in words,good effects
same,"Volume (acidity, total acid output)",gastric acidity; 3 mg/kg,14.94 ± 3.02 μ Eq/hr
same,"Inhibition rate, acidity",gastric acidity; 3 mg/kg,75.02%
same,"Volume (acidity, total acid output)",gastric acidity; 10 mg/kg,8.50 ± 1.30 μ Eq/hr
same,"Inhibition rate, acidity",gastric acidity; 10 mg/kg,85.79%
same,"Volume (acidity, total acid output)",gastric acidity; 30 mg/kg,6.06 ± 3.05 μ Eq/hr
same,"Inhibition rate, acidity",gastric acidity; 30 mg/kg,89.87%
same,effect for lowering acidity,gastric acidity; in words,good effects
COc1cc(C[S+]([O-])c2nc3cc(-n4cccc4)ccc3[nH]2)ncc1C (stereo not shown) [Compound 18],pIC50,H^+ /K^+ -ATPase,4.42
same,Volume of gastric juice,gastric juice secretion; 3 mg/kg,2.24 ± 0.12 ml/100 g BW
same,"Inhibition rate, gastric juice secretion",gastric juice secretion; 3 mg/kg,27.35%
same,Volume of gastric juice,gastric juice secretion; 10 mg/kg,2.14 ± 0.30 ml/100 g BW
same,"Inhibition rate, gastric juice secretion",gastric juice secretion; 10 mg/kg,30.90%
same,Volume of gastric juice,gastric juice secretion; 30 mg/kg,1.53 ± 0.19 ml/100 g BW
same,"Inhibition rate, gastric juice secretion",gastric juice secretion; 30 mg/kg,50.42%
same,"Volume (acidity, total acid output)",gastric acidity; 3 mg/kg,28.37 ± 3.44 μ Eq/hr
same,"Inhibition rate, acidity",gastric acidity; 3 mg/kg,53.39%
same,"Volume (acidity, total acid output)",gastric acidity; 10 mg/kg,23.40 ± 3.94 μ Eq/hr
same,"Inhibition rate, acidity",gastric acidity; 10 mg/kg,61.55%
same,"Volume (acidity, total acid output)",gastric acidity; 30 mg/kg,15.72 ± 3.60 μ Eq/hr
same,"Inhibition rate, acidity",gastric acidity; 30 mg/kg,74.18%
"COc1ccc2[nH]c([S+]([O-])Cc3ncc(C)c(OC)c3C)nc2c1 (stereo not shown) [Omeprazole, 5-methoxy-2-[[(4-methoxy-3,5-dimethyl-2-pyridinyl)methyl]sulfinyl]-1H-benzimidazole, reference compound]",pIC50,H^+ /K^+ -ATPase,~3.80
same,Volume of gastric juice,gastric juice secretion; 10 mg/kg,1.68 ± 0.30 ml/100 g BW
same,"Inhibition rate, gastric juice secretion",gastric juice secretion; 10 mg/kg,54.49%
same,"Volume (acidity, total acid output)",gastric acidity; 10 mg/kg,12.46 ± 1.85 μ Eq/hr
same,"Inhibition rate, acidity",gastric acidity; 10 mg/kg,84.00%
